Reference: PubChem BioAssay (NCI)
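Five compound concentrations were applied to cells in 96-well plates for 48 hours; endpoints were derived by simple linear interpolation of the resulting dose-response curve. GI50: concentration for 50% inhibition of growth. TGI: concentration producing complete growth inhibition.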

What was measured:
Test in all cases: inhibition of tumour cell growth, NCI panel, 48 h
[1] = test system: T-47D breast
[2] = test system: OVCAR-5 ovarian
[3] = test system: SNB-19 CNS
[4] = test system: SR leukemia
[5] = test system: NCI/ADR-RES ovarian
[6] = test system: ACHN renal
[7] = test system: OVCAR-8 ovarian
[8] = test system: MCF7 breast
[9] = test system: SK-OV-3 ovarian
[10] = test system: SN12C renal
[11] = test system: SW-620 colon
[12] = test system: HCC-2998 colon
[13] = test system: HOP-62 NSCLC
[14] = test system: COLO 205 colon
[15] = test system: NCI-H522 lung
[16] = test system: LOX IMVI melanoma
[17] = test system: HCT-116 colon
[18] = test system: OVCAR-3 ovarian
[19] = test system: SK-MEL-2 melanoma
[20] = test system: RXF 393 renal
[21] = test system: EKVX NSCLC
[22] = test system: HCT-15 colon
[23] = test system: MALME-3M melanoma
[24] = test system: NCI-H23 lung
[25] = test system: NCI-H460 lung
[26] = test system: KM12 colon
[27] = test system: SF-539 CNS
[28] = test system: UACC-62 melanoma
[29] = test system: OVCAR-4 ovarian

## CC(C)(C)Nc1nc2c(OCCc3ccccc3)cccn2c1-c1ccccc1Cl
[1]
  GI50: 2.35 µM
  TGI: 17.1 µM
[2]
  GI50: 11.9 µM
  TGI: 24.7 µM
[3]
  GI50: 3.35 µM
  TGI: 13.1 µM
[4]
  GI50: 3.89 µM
  TGI: 43.4 µM
[5]
  GI50: 6.4 µM
  TGI: 20.5 µM
[6]
  GI50: 8.82 µM
  TGI: 21 µM
[7]
  GI50: 4.36 µM
  TGI: 20 µM
[8]
  GI50: 3.35 µM
  TGI: 14.7 µM
[9]
  GI50: 3.82 µM
  TGI: 16.9 µM
[10]
  GI50: 3.03 µM
  TGI: 12.7 µM
[11]
  GI50: 4.91 µM
  TGI: 17.7 µM
[12]
  GI50: 3.51 µM
  TGI: 12.5 µM
[13]
  GI50: 4.82 µM
  TGI: 18.9 µM
[14]
  GI50: 3.49 µM
  TGI: 10.6 µM
[15]
  GI50: 3.75 µM
  TGI: 15.3 µM
[16]
  GI50: 4.08 µM
  TGI: 15.8 µM
[17]
  GI50: 4.01 µM
  TGI: 15.3 µM
[18]
  GI50: 2.93 µM
  TGI: 9.75 µM
[19]
  GI50: 2.72 µM
  TGI: 8.33 µM
[20]
  GI50: 9.26 µM
  TGI: 22.3 µM
[21]
  GI50: 3.19 µM
  TGI: 12.8 µM
[22]
  GI50: 4.12 µM
  TGI: 15.9 µM
[23]
  GI50: 2.23 µM
  TGI: 5.52 µM
[24]
  GI50: 3.67 µM
  TGI: 13.8 µM
[25]
  GI50: 3.76 µM
  TGI: 13.4 µM
[26]
  GI50: 3.58 µM
  TGI: 12.4 µM
[27]
  GI50: 10.7 µM
  TGI: 22.5 µM
[28]
  GI50: 2.22 µM
  TGI: 6.55 µM
[29]
  GI50: 3.61 µM
  TGI: 14.9 µM
